Data on five compounds can be found in patent US20220041591A1, “COMPOUNDS FOR TREATING DIABETES AND/OR RELATED CONDITIONS” (AUCKLAND UNISERVICES LIMITED, priority 2018, published 2022).

In one data set the target is T1, human amylin (hA) (Homo sapiens, UniProt P10997).
T1 construct: Human amylin, also known as islet amylin amyloid polypeptide (IAPP), is a 37-residue peptide hormone
T1 sequence (P10997 34-70 limits assumed): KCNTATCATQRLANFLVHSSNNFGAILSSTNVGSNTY
Kind of data set: Thioflavin-T assay, inhibition of amylin fibril formation. Type of data set: biochemical. How it is done:
The ability of the compounds to inhibit human amylin (hA) fibril formation was assessed using the thioflavin-T assay, as described in J. F. Aitken et al., Suppression by polycyclic compounds of the conversion of human amylin into insoluble amylin amyloid., Biochem J., 374 (2003), 779-784. Inhibition was assessed at three hA:compound ratios (1:1, 1:0.1, 1:0.01) for each compound.
The ability of the compounds to inhibit human amylin (hA) fibril formation was assessed using the thioflavin-T assay, as described in J. F. Aitken et al., Suppression by polycyclic compounds of the conversion of human amylin into insoluble amylin amyloid., Biochem J 374 (2003) 779-784. Inhibition was assessed at three hA:compound ratios (1:1, 1:0.1, 1:0.01) for each compound.

The conditions of data set [1]: for soluble in water: pH 11; for solubility in words at acid pH: pH 1.8; for solubility in words at alkaline pH (1 M NaOH): pH 11.1.
Excerpt: (§1) The compounds were titrated down to pH 8-9 with 1 M HCl and solubility determined immediately, and following overnight and longer term storage.
Light yellow solid. […] Add 1M NaOH.
Data set [2] is described as follows: Solubility and physical characteristics (1 M NaOH / 1 M HCl titration). Particulars: for soluble during initial suspension and on titration and pH adjustment: Example 12, titrated down to pH 8-9 with 1 M HCl.
Excerpt: as §1
Light yellow solid. […] Add 1M NaOH.

As for `O=c1cc(-c2ccc(O)cc2)nc2cccc(O)n12` [Compound 5], the “inhibition of hA fibril formation” value at human amylin (hA) (Example 14, ratio not stated at the place) is given as “little inhibition”. In addition, the “solubility at pH 7.4” value in data set [1] (pH 7.4) is on record as “lack of solubility”. The “solubility below pH 10” value in data set [1] (pH 10) was “not soluble”. Moreover, the “solubility in words after adding 1 M NaOH again, pH 10.4” value in data set [1] (pH 10.4) is listed as “completely soluble”. Also, the “soluble on addition of 1 M NaOH” value in data set [1] (pH 10.6) is “approx. 70%”. Besides, the “solubility in words after leaving 30 min in 1M NaOH” value in data set [1] (pH 11.3) is recorded as “completely soluble”. In addition, the “appearance after adding 1 M HCl, pH 8.9” value in data set [2] (Example 14) is reported as “slightly cloudy, some precipitation”.

Regarding `COc1cccc(NC(=O)CC(=O)c2ccc(O)c(O)c2)n1` [Compound 1], the “inhibition of hA fibril formation” value at human amylin (hA) (Example 12, FIG. 1B, hA:compound ratio 1:0.1) is listed as “Inhibition of hA fibril formation was observed”. In data set [1], this compound came in with a soluble in water of 100%. Moreover, in data set [2], the “soluble during initial suspension and on titration and pH adjustment” value was determined as 100%.

Consider `O=c1cc(-c2cccc(O)c2)nc2cccc(O)n12` [Compound 6], for which, in data set [1], the “solubility in words at acid pH” value is “Completely insoluble” and the “solubility in words at alkaline pH (1 M NaOH)” value is given as “Completely insoluble”.

Regarding `COc1ccnc(NC(=O)CC(=O)c2ccc(O)c(O)c2)c1` [Compound 9], the soluble in water in data set [1] worked out at 100%. Moreover, the “soluble during initial suspension and on titration and pH adjustment” value in data set [2] worked out at 95%.

Consider `COc1ccc(-c2cc(=O)n3c(O)cccc3n2)cc1OC` [Compound 7], for which, in data set [1], the “solubility in words at acid pH” value was “Completely insoluble” and the “solubility in words at alkaline pH (1 M NaOH)” value is reported as “Completely insoluble”.
